**Q.** With `CC(C)(C)c1cc(-c2c[nH]c(S(C)(=O)=O)n2)cc(C(C)(C)C)c1O` as the compound, how does the melting point read?
**A.** 119 to 120 °C

**Q.** With `NS(=O)(=O)c1ccc(-n2nc(C(F)(F)F)cc2-c2ccc(Cl)cc2)cc1` as the compound, how does the melting point read?
**A.** 126 to 128 °C

**Q.** Which melting point does the source give for `CC(=O)OC1CSC(Oc2ccc(-c3ccnc(F)c3)nc2)C(OC(C)=O)C1OC(C)=O` (stereo not given) here?
**A.** 179 °C

**Q.** Which melting point does the source give for `N#Cc1cc2c(c(C(=O)O)c1)OC(c1ccccc1)(c1ccccc1)O2` here?
**A.** 221 °C

**Q.** With `O=C(Nc1ccc2[nH]c(=O)sc2c1)C(=O)N1CCC(Oc2ccc(Cl)cc2)CC1` as the compound, how does the melting point read?
**A.** 245 to 247 °C

**Q.** Which melting point does the source give for `COc1ccc(COc2cccc(N)c2N)cc1` here?
**A.** 127 °C

**Q.** Which melting point does the source give for `Cc1noc(NS(=O)(=O)c2ccccc2-c2ccc(-c3ccno3)cc2)c1C` here?
**A.** 85 to 90 °C

**Q.** Which melting point does the source give for `CS(=O)(=O)Nc1ccc(-c2cc(-c3c(-c4cccc(Cl)c4)nc4ccccn34)ccn2)cc1` here?
**A.** 60 °C

**Q.** For `CCOC(=O)C1=C(C)NC(CS)=C(C(=O)OCC)C1c1cccc([N+](=O)[O-])c1` (stereo not given), which melting point is on record?
**A.** 145 to 147 °C

**Q.** Which melting point does the source give for `O=C(O)CN(CCN(CC(=O)O)C(COCc1ccccc1)C(=O)O)C(COCc1ccccc1)C(=O)O` (stereo not given) here?
**A.** 177 °C

**Q.** With `CSc1nn2c(N3CCN(C)CC3)cc(C)nc2c1S(=O)(=O)c1cccnc1` as the compound, how does the melting point read?
**A.** 188 to 189 °C

**Q.** Which melting point does the source give for `O=C1CCCN1c1ccc2c(c1)OCO2` here?
**A.** 89 to 91 °C

**Q.** For `O=C(O)c1ccc2[nH]c3c(c2c1)CCCCCC3`, which melting point is on record?
**A.** 240 to 241 °C

**Q.** For `O=C(CC(=O)c1cccn1Cc1ccc(F)cc1)c1ccncn1`, which melting point is on record?
**A.** 128 to 129 °C

**Q.** Which melting point does the source give for `COc1ccc(C2CCCN2S(=O)(=O)c2ccc(C)cc2)cc1` (racemic) here?
**A.** 122 °C

**Q.** Which melting point does the source give for `CSCCc1nc(N2CCc3ccccc3CC2)c(C#N)c(=O)n1CCO` here?
**A.** 93 to 99 °C

**Q.** For `CC(C)(C)C(OC(=O)Nc1ccccc1)C(=CC1CCCCC1)n1cncn1` (stereo not given), which melting point is on record?
**A.** 156 °C

**Q.** With `COC(=O)C1=C(NCc2ccccc2)C(=O)O[C@@H]1C` as the compound, how does the melting point read?
**A.** 68 to 70 °C

**Q.** With `N[C@@H]1C(=O)Nc2ccccc2-c2ccccc21` as the compound, how does the melting point read?
**A.** > 225 °C

**Q.** For `O=C(c1ccccc1)c1ccccc1I`, which melting point is on record?
**A.** 29 to 31 °C

**Q.** With `CCCC(=O)Nc1cc(Cl)c(O)c(Cl)c1` as the compound, how does the melting point read?
**A.** 146 to 147 °C

**Q.** Which melting point does the source give for `CCOC(=O)c1cn(C)c2cnc3c(F)c(F)ccc3c2c1=O` here?
**A.** 320 °C

**Q.** With `CC(C)(C)OC(=O)NCC1(Cc2noc(=S)[nH]2)CCCCC1` as the compound, how does the melting point read?
**A.** 160 to 161 °C

**Q.** Which melting point does the source give for `CN(C)C(=O)C(c1ccc(N)cc1)C1(O)CCCCC1` (stereo not given) here?
**A.** 169 to 170 °C

**Q.** For `N#Cc1ccc2c(c1)OC(=O)C(Br)C2Br` (stereo not given), which melting point is on record?
**A.** 220 to 230 °C

**Q.** For `NS(=O)(=O)c1ccc(CCI)cc1`, which melting point is on record?
**A.** 227 °C

**Q.** Which melting point does the source give for `CNc1nc2ccc(-c3nc4cc(C)ccn4c3C)cc2s1` here?
**A.** 191 to 194 °C

**Q.** With `COC(=O)C(C)(C)c1ccc(OCCNC(=O)C2Cc3ccccc3N2S(=O)(=O)c2ccc(-c3cc(C(F)(F)F)ccc3Cl)cc2)cc1` (stereo not given) as the compound, how does the melting point read?
**A.** 66 to 72 °C

**Q.** Which melting point does the source give for `CN(c1cccc(C(F)(F)F)c1)c1nc2c(-c3cccc(C(=O)NCCO)c3)cccc2n1C` here?
**A.** 156 to 158 °C

**Q.** For `CCN1C[C@@H](C(=O)OC(C)(C)C)N(C(=O)[C@H](C)CSC(=O)c2ccccc2)C1=O`, which melting point is on record?
**A.** 92 to 93 °C

**Q.** Which melting point does the source give for `COc1cccc2c1CCCC2=NNc1nc(-c2ccc(Cl)cc2Cl)cs1` here?
**A.** 200 °C

**Q.** For `CCn1nc(-c2ccccc2)c(C(C)=O)c(Nc2cccc3ccc(C)nc23)c1=O`, which melting point is on record?
**A.** 172 to 173 °C

**Q.** For `CC(C)N(C)c1cccc([N+](=O)[O-])c1C#N`, which melting point is on record?
**A.** 70 to 72 °C

**Q.** With `COc1cc(C=CC(=O)C(C)C(=O)C=Cc2ccc(O)c(OC)c2)ccc1O` (stereo not given) as the compound, how does the melting point read?
**A.** 180 to 183 °C

**Q.** Which melting point does the source give for `Fc1ccc(Nc2ncnc3[nH]ccc23)cc1Cl` here?
**A.** 274 to 275 °C

**Q.** For `COc1cccc(Oc2ccc(CCNc3ncnc4nccnc34)cc2)n1`, which melting point is on record?
**A.** 152 to 153 °C

**Q.** Which melting point does the source give for `O=S(=O)(CCS(=O)(=O)c1nc(-c2ccc(F)cc2)c(-c2ccc(F)cc2)[nH]1)c1nc(-c2ccc(F)cc2)c(-c2ccc(F)cc2)[nH]1` here?
**A.** 246 to 248 °C

**Q.** For `CC(=O)Oc1ccc(C(C)C)c(NC(=O)CN2CCN(CCSc3nc4ccccc4o3)CC2)c1C(C)C`, which melting point is on record?
**A.** 129 to 131 °C

**Q.** With `CCOC1=CC(=O)N([C@@H]2c3cc(C#N)ccc3OC(C)(C)[C@H]2OC(C)=O)C1` (relative stereo) as the compound, how does the melting point read?
**A.** 156 °C

**Q.** Which melting point does the source give for `CC(O)c1cc(C(F)(F)F)cc(S(N)(=O)=O)c1` (stereo not given) here?
**A.** 169 to 170 °C

**Q.** Which melting point does the source give for `N#CC(C#N)=C1N(CCCCN2CCCCC2)CCN1CCCN1CCCCC1` here?
**A.** 88 to 90 °C

**Q.** For `Cc1cc(-c2cc(C(F)(F)F)n3nc(CC#N)c(C#N)c3n2)ccc1Cl`, which melting point is on record?
**A.** 238 °C

**Q.** Which melting point does the source give for `CCOC(=O)c1cn2c3c(cc(N(C)C)cc3c1=O)CCC2C` (stereo not given) here?
**A.** 219 to 222 °C

**Q.** With `CCCc1c(O)c(Cl)cc(C(=O)OC)c1O` as the compound, how does the melting point read?
**A.** 75 to 76 °C

**Q.** With `CN1C(=S)[C@H](NC(=O)OCc2ccccc2)N=C(c2ccccc2)c2ccccc21` as the compound, how does the melting point read?
**A.** 128 to 131 °C

**Q.** Which melting point does the source give for `O=[N+]([O-])c1cnc2cc(Cl)ccc2c1Nc1ccc(F)cc1` here?
**A.** 198 to 200 °C

**Q.** With `COc1cc(OC)c(C2C=CCO2)cc1C=CC(=O)c1ccc(S(N)(=O)=O)cc1` (stereo not given) as the compound, how does the melting point read?
**A.** 194 to 195 °C

**Q.** With `Cc1ccc(C2(O)C(c3ccccc3)SC3=NCCCCN32)s1` (stereo not given) as the compound, how does the melting point read?
**A.** 70 to 90 °C

**Q.** Which melting point does the source give for `CCOP(=O)(OCC)c1nc(N2CCOCC2)nc(N2CCOCC2)n1` here?
**A.** 114 to 116 °C

**Q.** For `CCSc1cc(C)nc(SCC)c1NC(=O)CCCCCCCSc1nc2ccccc2[nH]1`, which melting point is on record?
**A.** 166 to 168 °C

**Q.** For `Cc1cc(C(=O)Nc2ccc(C(N)=O)cc2)on1`, which melting point is on record?
**A.** > 300 °C

**Q.** Which melting point does the source give for `O=C1c2cccc3cccc(c23)C1Br` (stereo not given) here?
**A.** 100 to 105 °C

**Q.** For `CC(C)(C)c1cc(C(=O)c2ccc(N)cc2)cc(C(C)(C)C)c1O`, which melting point is on record?
**A.** 164 to 166 °C

**Q.** With `CC(C)c1cccc(C(C)C)c1NC(=O)Cc1ccccc1NCCc1ccccc1` as the compound, how does the melting point read?
**A.** 120 to 123 °C

**Q.** For `O=C(O)c1ccn(C2=CC3=C(CC2)CCc2[nH]c(=O)c(=O)n(O)c23)c1`, which melting point is on record?
**A.** > 300 °C

**Q.** For `C1=c2ccccc2=c2c1c1cnccc1c1c2=Cc2ccccc2-1`, which melting point is on record?
**A.** 225 to 227 °C

**Q.** Which melting point does the source give for `Cc1ccc(C(=O)c2cccc(S)n2)cc1` here?
**A.** 179 to 181 °C

**Q.** With `Cn1c(Br)c(Br)c(Br)c1C#N` as the compound, how does the melting point read?
**A.** 115 to 119 °C

**Q.** Which melting point does the source give for `Cc1ccc2[nH]c(=O)n(C(C)(C)C(=O)OCC(=O)c3ccccc3)c(=O)c2c1` here?
**A.** 189 to 191 °C

**Q.** For `Nc1nc2ccc(Cl)nc2c(=O)[nH]1`, which melting point is on record?
**A.** > 330 °C

**Q.** Which melting point does the source give for `N#Cc1ccc(-c2ccc(-c3ccc(-c4ccc(C#N)cc4)o3)o2)cc1` here?
**A.** 298 to 299 °C

**Q.** With `COc1ccc(C2=NN(c3ccc(C(=O)Nc4ccc(-c5ccc(=O)[nH]n5)cc4)cc3)C(=O)[C@H]3CC=CC[C@@H]23)cc1OC` (relative stereo) as the compound, how does the melting point read?
**A.** 272 to 273 °C

**Q.** With `CC1CCc2c(-n3ccnc3)c(F)cc3c(=O)c(C(=O)O)cn1c23` (stereo not given) as the compound, how does the melting point read?
**A.** > 250 °C

**Q.** Which melting point does the source give for `COC(=O)c1ccccc1NC(=O)Cc1ccccc1C` here?
**A.** 80 to 82 °C

**Q.** For `CC[C@H](CC(=O)NC(=O)OC)Nc1ccc(C(F)(F)F)cc1`, which melting point is on record?
**A.** 142 °C

**Q.** With `OCc1nccc2c1CCCC2` as the compound, how does the melting point read?
**A.** 81 to 82 °C

**Q.** With `CC(C)C(SC(=O)c1ccccc1)C(=O)NCC(=O)O` (stereo not given) as the compound, how does the melting point read?
**A.** 136 to 137 °C

**Q.** For `CCCNC(=O)C1CC(=O)N(Cc2ccccc2)C1` (stereo not given), which melting point is on record?
**A.** 86 to 87 °C

**Q.** Which melting point does the source give for `O=C(O)c1cn(C2CC2)c2c(F)c(N3CCCC(n4cncn4)C3)c(F)cc2c1=O` (stereo not given) here?
**A.** 217 °C

**Q.** Which melting point does the source give for `Cc1nc(N2CCC(Cc3ccc(C(F)(F)F)cc3)C2=O)sc1C(=O)NCc1ccc(F)cc1` (stereo not given) here?
**A.** 175 to 176 °C

Reference: a melting point compilation (Tetko et al.; mined from patent text by program, amines drawn as free bases though some values may be those of a salt)
